{
  "source": "ChEMBL document CHEMBL2157906",
  "about": "“Identification of a dual δ OR antagonist/μ OR agonist as a potential therapeutic for diarrhea-predominant Irritable Bowel Syndrome (IBS-d)” (Bioorg Med Chem Lett, 2012)",
  "key": {"[1]": {"biological_target": "T1, Delta-type opioid receptor (Homo sapiens, UniProt P41143)", "T1 sequence (P41143 whole entry)": "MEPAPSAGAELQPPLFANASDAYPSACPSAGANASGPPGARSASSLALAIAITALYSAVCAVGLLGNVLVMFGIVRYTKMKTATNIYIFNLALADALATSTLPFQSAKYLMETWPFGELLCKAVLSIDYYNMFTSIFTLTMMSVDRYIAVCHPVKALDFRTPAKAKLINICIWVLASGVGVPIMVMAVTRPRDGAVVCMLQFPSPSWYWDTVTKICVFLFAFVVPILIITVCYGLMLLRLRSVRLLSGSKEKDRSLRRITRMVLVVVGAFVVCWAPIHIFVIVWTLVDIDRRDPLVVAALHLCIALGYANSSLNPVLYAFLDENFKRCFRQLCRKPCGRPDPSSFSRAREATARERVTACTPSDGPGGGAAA", "experiment": "Agonist activity at delta opioid receptor expressed in CHO-hg cells by [35S]-GTPgammaS binding assay", "type": "functional, cell-based"}, "[2]": {"biological_target": "Delta-type opioid receptor (Rattus norvegicus, UniProt P33533)", "sequence (P33533 whole entry)": "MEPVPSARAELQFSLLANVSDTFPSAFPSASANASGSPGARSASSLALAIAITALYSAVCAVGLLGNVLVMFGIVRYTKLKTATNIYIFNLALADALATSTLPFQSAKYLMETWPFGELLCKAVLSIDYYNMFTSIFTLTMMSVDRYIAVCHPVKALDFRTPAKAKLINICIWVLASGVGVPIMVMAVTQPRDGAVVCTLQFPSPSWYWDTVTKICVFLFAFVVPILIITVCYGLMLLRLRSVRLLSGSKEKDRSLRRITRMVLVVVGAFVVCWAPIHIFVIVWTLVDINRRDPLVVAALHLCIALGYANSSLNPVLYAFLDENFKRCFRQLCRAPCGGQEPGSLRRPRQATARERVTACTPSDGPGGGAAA", "experiment": "Binding affinity to rat delta opioid receptor"}, "Mu-type opioid receptor [3]": {"biological_target": "Mu-type opioid receptor (Rattus norvegicus, UniProt P33535)", "sequence (P33535 whole entry)": "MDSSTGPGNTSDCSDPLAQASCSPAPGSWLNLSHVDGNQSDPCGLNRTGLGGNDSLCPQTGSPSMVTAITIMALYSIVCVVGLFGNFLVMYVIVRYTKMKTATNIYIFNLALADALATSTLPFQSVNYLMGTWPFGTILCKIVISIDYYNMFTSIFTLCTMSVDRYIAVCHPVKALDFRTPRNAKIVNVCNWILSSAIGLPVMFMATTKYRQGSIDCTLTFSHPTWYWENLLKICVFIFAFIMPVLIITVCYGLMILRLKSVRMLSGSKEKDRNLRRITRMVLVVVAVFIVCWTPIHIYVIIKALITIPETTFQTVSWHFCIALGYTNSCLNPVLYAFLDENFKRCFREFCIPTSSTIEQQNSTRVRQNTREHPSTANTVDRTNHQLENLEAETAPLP", "experiment": "Binding affinity to rat mu opioid receptor"}, "Mu-type opioid receptor [4]": {"biological_target": "T2, Mu-type opioid receptor (Homo sapiens, UniProt P35372)", "T2 sequence (P35372 whole entry)": "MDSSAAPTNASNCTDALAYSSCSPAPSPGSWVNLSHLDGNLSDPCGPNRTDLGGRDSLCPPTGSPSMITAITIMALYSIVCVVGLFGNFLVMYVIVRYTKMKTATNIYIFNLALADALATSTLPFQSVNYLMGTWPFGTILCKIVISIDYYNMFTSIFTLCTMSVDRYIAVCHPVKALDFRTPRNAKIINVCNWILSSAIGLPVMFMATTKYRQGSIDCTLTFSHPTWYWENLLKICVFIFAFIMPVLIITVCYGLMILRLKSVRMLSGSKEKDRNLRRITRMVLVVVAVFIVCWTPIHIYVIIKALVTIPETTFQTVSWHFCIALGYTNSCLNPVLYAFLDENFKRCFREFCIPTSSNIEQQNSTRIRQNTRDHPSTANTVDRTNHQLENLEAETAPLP", "experiment": "Agonist activity at mu opioid receptor expressed in CHO-hg cells by [35S]-GTPgammaS binding assay", "type": "functional, cell-based"}, "[5]": {"biological_target": "T3, Kappa-type opioid receptor (Cavia porcellus, UniProt P41144)", "T3 sequence (P41144 whole entry)": "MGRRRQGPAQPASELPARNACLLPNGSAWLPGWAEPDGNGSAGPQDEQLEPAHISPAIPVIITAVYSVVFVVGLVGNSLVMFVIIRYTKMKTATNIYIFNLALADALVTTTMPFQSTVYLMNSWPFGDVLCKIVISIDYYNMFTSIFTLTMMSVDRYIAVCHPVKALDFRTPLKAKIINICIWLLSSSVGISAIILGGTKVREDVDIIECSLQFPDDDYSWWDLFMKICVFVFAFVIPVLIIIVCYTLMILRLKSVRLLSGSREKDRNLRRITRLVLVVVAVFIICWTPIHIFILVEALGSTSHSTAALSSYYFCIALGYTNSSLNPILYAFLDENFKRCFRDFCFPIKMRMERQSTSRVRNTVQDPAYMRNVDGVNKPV", "experiment": "Binding affinity to guinea pig kappa opioid receptor"}, "[6]": {"biological_target": "T3, Kappa-type opioid receptor", "experiment": "Agonist activity at kappa opioid receptor guinea pig colon tissue", "type": "functional, tissue-based"}, "[7]": {"biological_target": "T1, Delta-type opioid receptor", "experiment": "Antagonist activity at delta opioid receptor expressed in CHO-hg cells assessed as inhibition of SNC-80-induced [35S]-GTPgammaS binding", "type": "functional, cell-based"}, "Mu-type opioid receptor [8]": {"biological_target": "T2, Mu-type opioid receptor", "experiment": "Binding affinity to human mu opioid receptor"}, "[9]": {"experiment": "Half life in human liver microsomess", "type": "ADME, Microsome", "conditions": "liver microsomes"}, "[10]": {"biological_target": "Voltage-gated inwardly rectifying potassium channel KCNH2 (Homo sapiens, UniProt Q12809)", "sequence (Q12809 whole entry)": "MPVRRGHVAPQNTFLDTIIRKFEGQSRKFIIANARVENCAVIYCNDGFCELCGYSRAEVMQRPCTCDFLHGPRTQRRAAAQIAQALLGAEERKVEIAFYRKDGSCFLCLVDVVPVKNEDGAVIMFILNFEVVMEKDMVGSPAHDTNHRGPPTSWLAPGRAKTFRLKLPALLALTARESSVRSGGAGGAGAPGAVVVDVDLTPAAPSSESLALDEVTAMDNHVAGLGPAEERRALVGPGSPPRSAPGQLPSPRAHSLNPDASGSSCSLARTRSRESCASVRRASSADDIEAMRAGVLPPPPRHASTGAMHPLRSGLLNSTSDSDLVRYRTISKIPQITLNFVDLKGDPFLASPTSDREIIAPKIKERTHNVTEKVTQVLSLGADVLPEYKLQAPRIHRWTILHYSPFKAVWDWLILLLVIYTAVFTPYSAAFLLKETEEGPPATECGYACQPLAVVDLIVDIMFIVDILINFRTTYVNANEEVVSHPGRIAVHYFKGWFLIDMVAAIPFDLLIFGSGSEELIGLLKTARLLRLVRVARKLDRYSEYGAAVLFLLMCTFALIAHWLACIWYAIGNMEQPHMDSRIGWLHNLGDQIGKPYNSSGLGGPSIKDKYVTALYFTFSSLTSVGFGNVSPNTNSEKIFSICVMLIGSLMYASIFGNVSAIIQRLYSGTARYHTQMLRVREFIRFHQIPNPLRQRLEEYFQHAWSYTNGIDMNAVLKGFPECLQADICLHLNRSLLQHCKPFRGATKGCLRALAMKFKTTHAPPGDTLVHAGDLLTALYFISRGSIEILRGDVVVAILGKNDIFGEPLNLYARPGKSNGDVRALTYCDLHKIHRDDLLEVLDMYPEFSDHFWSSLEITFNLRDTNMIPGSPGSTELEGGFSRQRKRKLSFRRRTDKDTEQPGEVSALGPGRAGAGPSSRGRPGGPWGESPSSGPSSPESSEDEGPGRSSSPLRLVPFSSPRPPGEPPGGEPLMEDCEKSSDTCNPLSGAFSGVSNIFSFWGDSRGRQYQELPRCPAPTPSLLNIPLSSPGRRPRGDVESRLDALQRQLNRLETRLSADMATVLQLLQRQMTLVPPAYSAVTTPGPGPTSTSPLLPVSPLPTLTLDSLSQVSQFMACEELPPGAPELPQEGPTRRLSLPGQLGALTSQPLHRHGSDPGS", "experiment": "Displacement of [3H]-astemizole from human ERG"}, "Cytochrome P450 3A4": {"biological_target": "Cytochrome P450 3A4 (Homo sapiens, UniProt P08684)", "sequence (P08684 whole entry)": "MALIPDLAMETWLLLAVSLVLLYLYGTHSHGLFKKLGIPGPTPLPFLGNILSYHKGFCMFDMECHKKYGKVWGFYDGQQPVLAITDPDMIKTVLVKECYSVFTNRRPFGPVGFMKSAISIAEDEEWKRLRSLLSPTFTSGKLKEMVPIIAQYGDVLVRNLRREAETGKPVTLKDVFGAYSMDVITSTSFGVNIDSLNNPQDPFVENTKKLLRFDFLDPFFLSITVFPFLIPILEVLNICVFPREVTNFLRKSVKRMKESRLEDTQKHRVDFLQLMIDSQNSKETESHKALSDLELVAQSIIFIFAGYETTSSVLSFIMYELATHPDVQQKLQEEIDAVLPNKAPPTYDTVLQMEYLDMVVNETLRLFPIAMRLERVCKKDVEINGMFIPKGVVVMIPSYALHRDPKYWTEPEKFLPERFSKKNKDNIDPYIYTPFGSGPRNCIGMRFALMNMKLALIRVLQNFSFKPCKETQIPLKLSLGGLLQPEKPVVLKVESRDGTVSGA", "experiment": "Inhibition of CYP3A4 in human liver microsomes", "type": "ADME, Microsome"}, "[11]": {"experiment": "Solubility of the compound at pH 7.4", "type": "physicochemical", "conditions": "buffer"}, "[12]": {"experiment": "Antagonist activity at delta opioid receptor in hamster vas deferens tissue", "type": "functional, tissue-based", "conditions": "Cricetinae"}},
  "note": "Activity calls are given as the source filed them. No cut-off for these calls is given here.",
  "data": [
    {"compound": "Cc1cc(O)cc(C)c1C[C@H](N)C(=O)N(C(C)C)[C@@H](C)c1nc(-c2ccccc2)c[nH]1", "values": [
      {"measurement": "EC50", "setting": "[1]", "value": 103, "unit": "nM"},
      {"measurement": "Ki", "setting": "[2]", "value": 1.4, "unit": "nM"},
      {"measurement": "Ki", "setting": "Mu-type opioid receptor [3]", "value": 0.03, "unit": "nM"}
    ]},
    {"compound": "Cc1cc(O)cc(C)c1C[C@H](N)C(=O)N1Cc2ccccc2C[C@H]1c1nc(-c2ccccc2)c[nH]1", "values": [
      {"measurement": "EC50", "setting": "[1]", "value": 0.9, "unit": "nM"},
      {"measurement": "EC50", "setting": "Mu-type opioid receptor [4]", "value": 27, "unit": "nM"}
    ]},
    {"compound": "N[C@@H](Cc1ccc(O)cc1)C(=O)N1Cc2ccccc2C[C@H]1c1nc(-c2ccccc2)c[nH]1", "values": [
      {"measurement": "EC50", "setting": "[1]", "value": 19, "unit": "nM"},
      {"measurement": "EC50", "setting": "Mu-type opioid receptor [4]", "value": 2440, "unit": "nM"}
    ]},
    {"compound": "Cc1cc(C(N)=O)cc(C)c1C[C@H](N)C(=O)N1CCCC[C@H]1c1nc(-c2ccccc2)c[nH]1", "values": [
      {"measurement": "EC50", "setting": "[1]", "value": 135, "unit": "nM"},
      {"measurement": "EC50", "setting": "Mu-type opioid receptor [4]", "value": 9, "unit": "nM"}
    ]},
    {"compound": "Cc1cc(O)cc(C)c1C[C@H](N)C(=O)N(Cc1nc(-c2ccccc2)c[nH]1)C(C)C", "values": [
      {"measurement": "Ki", "setting": "[2]", "value": 15, "unit": "nM"},
      {"measurement": "Ki", "setting": "Mu-type opioid receptor [3]", "value": 0.1, "unit": "nM"}
    ]},
    {"compound": "COc1ccc(CN(C(=O)[C@@H](N)Cc2c(C)cc(C(N)=O)cc2C)[C@@H](C)c2nc(-c3ccccc3)c[nH]2)cc1C(=O)O", "note": "[ELUXADOLINE]", "values": [
      {"measurement": "Ki", "setting": "[5]", "value": 55, "unit": "nM"},
      {"measurement": "EC50", "setting": "[1]", "value": "> 10000", "unit": "nM"},
      {"measurement": "Ki", "setting": "[2]", "value": 1.3, "unit": "nM"},
      {"measurement": "Ki", "setting": "Mu-type opioid receptor [3]", "value": 0.9, "unit": "nM"},
      {"measurement": "EC50", "setting": "[6]", "value": 1600, "unit": "nM"}
    ]},
    {"compound": "Cc1cc(C(N)=O)cc(C)c1C[C@H](N)C(=O)N(Cc1cccc(C(=O)O)c1)[C@@H](C)c1nc(-c2ccccc2)c[nH]1", "values": [
      {"measurement": "EC50", "setting": "[1]", "value": "> 10000", "unit": "nM"},
      {"measurement": "Ki", "setting": "[2]", "value": 0.5, "unit": "nM"},
      {"measurement": "Ki", "setting": "Mu-type opioid receptor [3]", "value": 1, "unit": "nM"},
      {"measurement": "inhibition", "setting": "[7]", "value": "Active"}
    ]},
    {"compound": "Cc1cc(O)cc(C)c1C[C@H](N)C(=O)N[C@@H](Cc1ccccc1)c1nc(-c2ccccc2)c[nH]1", "values": [
      {"measurement": "Ki", "setting": "Mu-type opioid receptor [3]", "value": 13, "unit": "nM"}
    ]},
    {"compound": "COc1ccc(CN(C(=O)[C@@H](N)Cc2c(C)cc(C(N)=O)cc2C)C(C)c2nc(-c3ccccc3)c[nH]2)cc1C(=O)O.Cl.Cl", "note": "(single isomer, unassigned)", "values": [
      {"measurement": "Ki", "setting": "Mu-type opioid receptor [8]", "value": 1.7, "unit": "nM"},
      {"measurement": "half-life", "setting": "[9]", "value": 2.5, "unit": "h"},
      {"measurement": "IC50", "setting": "[10]", "value": "> 10000", "unit": "nM"},
      {"measurement": "IC50", "setting": "Cytochrome P450 3A4", "value": "> 20000", "unit": "nM"},
      {"measurement": "solubility", "setting": "[11]", "value": "> 1000", "unit": "µg/mL"}
    ]},
    {"compound": "Cc1cc(C(N)=O)cc(C)c1C[C@H](N)C(=O)N1Cc2ccccc2C[C@H]1c1nc(-c2ccccc2)c[nH]1", "values": [
      {"measurement": "EC50", "setting": "[1]", "value": 22, "unit": "nM"},
      {"measurement": "EC50", "setting": "Mu-type opioid receptor [4]", "value": 161, "unit": "nM"}
    ]},
    {"compound": "Cc1cc(C(N)=O)cc(C)c1C[C@H](N)C(=O)N(Cc1ccccc1)[C@@H](C)c1nc(-c2ccccc2)c[nH]1", "values": [
      {"measurement": "Ki", "setting": "Mu-type opioid receptor [3]", "value": 0.3, "unit": "nM"}
    ]},
    {"compound": "Cc1cc(O)cc(C)c1C[C@H](N)C(=O)N1CCCC[C@H]1c1nc(-c2ccccc2)c[nH]1", "values": [
      {"measurement": "EC50", "setting": "[1]", "value": 37, "unit": "nM"},
      {"measurement": "EC50", "setting": "Mu-type opioid receptor [4]", "value": 2, "unit": "nM"}
    ]},
    {"compound": "Cc1cc(O)cc(C)c1C[C@H](N)C(=O)N(Cc1ccccc1)[C@@H](C)c1nc(-c2ccccc2)c[nH]1", "values": [
      {"measurement": "Ki", "setting": "[2]", "value": 1.5, "unit": "nM"}
    ]},
    {"compound": "Cc1cc(O)cc(C)c1C[C@H](N)C(=O)N(C)[C@@H](C)c1nc(-c2ccccc2)c[nH]1", "values": [
      {"measurement": "Ki", "setting": "[2]", "value": 15, "unit": "nM"}
    ]},
    {"compound": "COc1ccc(CN(C(=O)[C@@H](N)Cc2c(C)cc(C(N)=O)cc2C)[C@@H](C)c2ncc(-c3ccccc3)[nH]2)cc1C(=O)O", "note": "[ELUXADOLINE]", "values": [
      {"measurement": "IC50", "setting": "[12]", "value": 89, "unit": "nM"},
      {"measurement": "inhibition", "setting": "[7]", "value": "Active"}
    ]}
  ]
}
